Assay results reported in patent US4432973A, “Benzoyl- and α-hydroxybenzyl-phenyl-glycosides and application thereof in therapeutics” (Societe de Recherches Industrielles (S.O.R.I.), priority 1980, dated 1984).

Experiments:
[1] = Acute toxicity in the mouse by the I.P. route; assay type: in vivo; conditions: for LD50: read-out: DL-50 (lethal dose involving the death of half of the animals)
Source text: The acute toxicity was studied in the mouse by the I.P. route. It is expressed in the form of DL-50 (lethal dose involving the death of half of the animals) or DL-0 (maximum non-lethal dose).

[2] = Anti-ulcer activity: ulcer caused by aspirin; assay type: in vivo, rat (male Wistar); conditions: aspirin 192 mg/kg per os, standardised to control batch and cimetidine (index 1)
Protocol: The experiment is carried out on male Wistar rats of 180 to 200 g. The products to be tested are administered at 100 mg/kg I.P. (unless indicated to the contrary in Table IV).
At t=0, the rats are made to fast and a first administration of the product to be tested is made.
At t=18 hours, 2 ml of an ulcer-forming suspension with 192 mg of aspirin/kg are administered per os then a second administration of the product to be tested is made.
At t=22 hours, the animals are sacrificed and the ulcers are marked as follows: small point-like ulcers: mark 1 more extensive ulcers: mark 3 highly extensive or very deep ulcers: mark 9
This marking is standardised with respect to a control batch and to cimetidine (a reference product) to which index 1 has been allocated.

[3] = Anti-hypoxic activity: survival to hypoxia (nitrogen-oxygen 95:5); assay type: in vivo, mouse (Swiss male); conditions: I.P., 1/10th of LD-50 or 100 mg/kg when LD-0 ≥ 800 mg/kg; up to 15 minutes; mouse
Protocol: The experiment is carried out on batches of 20 Swiss male mice weighing from 20 to 30 g. Each product to be tested is administered to the mice by intraperitoneal route at a dose corresponding to 1/10th of the LD-50 or at a dose of 100 mg/kg when the LD-0 is higher than or equal to 800 mg/kg. The mice are placed in a nitrogen-oxygen (95:5) v/v atmosphere. The survival time of the mice is then measured up to 15 minutes maximum.
The results shown in Table VII are expressed in percentage of survival with respect to a non-treated control batch and a batch treated with an anti-hypoxic reference product [specialty known under the trade name of "Duxil" and which is constituted by a mixture of Almitrine bis-methanesulfonate and of Raubasine in the weight ratio 3:1], the anti-hypoxic reference product being administered at the dose of 18 mg/kg I.P.

Compound | Survival (survival percentage to hypoxic aggression) [3] | Ulcer index ([2]; 100 mg/kg I.P.) | DL-0 (maximum non-lethal dose) ([1]; I.P.) [mg/kg IP] | also measured
Cc1ccc(C(O)c2cccc(O[C@@H]3OC[C@@H](O)[C@H](O)[C@H]3O)c2)cc1 (single isomer, unassigned) [Example 107] |  |  |  | DL-50 (lethal dose involving the death of half of the animals) ([1]; I.P.): 550 mg/kg IP
O=C(c1ccc(O[C@@H]2OC[C@@H](O)[C@H](O)[C@H]2O)cc1)c1ccc(C(F)(F)F)cc1 [Example 11] | ++ (from 50 to 79%) |  |  | DL-0 (maximum non-lethal dose) ([1]; in vivo, ip): > 800 mg/kg IP; Ulcer index ([2]; 200 mg/kg P.O.): 0
O=C(c1ccc(O[C@@H]2OC[C@@H](O)[C@H](O)[C@H]2O)cc1)c1cccc(C(F)(F)F)c1 [Example 13] | ++ (from 50 to 79%) | 0.46 |  | LD50 ([1]; in vivo, ip, I.P.): 170 mg/kg
COc1cccc(C(=O)c2ccc(O[C@@H]3OC[C@@H](O)[C@H](O)[C@H]3O)cc2)c1 [Example 16] | + (from 30 to 49%) | 0.73 |  | DL-0 (maximum non-lethal dose) ([1]; in vivo, ip): > 800 mg/kg IP
O=C(c1ccc(O[C@@H]2O[C@H](CO)[C@@H](O)[C@H](O)[C@H]2O)cc1)c1ccc([N+](=O)[O-])cc1 [Example 19] | ++ (from 50 to 79%) | 0.74 |  | DL-0 (maximum non-lethal dose) ([1]; in vivo, ip): > 800 mg/kg IP
O=C(c1ccc(O[C@@H]2O[C@H](CO)[C@H](O)[C@H](O)[C@H]2O)cc1)c1ccc([N+](=O)[O-])cc1 [Example 20] |  | 0.62 | > 800 | 
Cc1cc(C(=O)c2ccc(Cl)cc2)cc(C)c1O[C@@H]1OC[C@@H](O)[C@H](O)[C@H]1O [Example 22] |  | 1.46 |  | LD50 ([1]; in vivo, ip, I.P.): 500 mg/kg
Cc1cc(C(=O)c2ccccc2)cc([N+](=O)[O-])c1O[C@@H]1OC[C@@H](O)[C@H](O)[C@H]1O [Example 25] |  | 0.54 |  | LD50 ([1]; in vivo, ip, I.P.): 330 mg/kg
CC(=O)N[C@H]1[C@H](Oc2c(C)cc(C(=O)c3ccccc3C)cc2C)O[C@H](CO)[C@@H](O)[C@@H]1O [Example 26] | + (from 30 to 49%) | 0.60 |  | LD50 ([1]; in vivo, ip, I.P.): 700 mg/kg
Cc1cc(O)ccc1C(=O)c1cc(C)c(O[C@@H]2O[C@H](CO)[C@@H](O)[C@H](O)[C@H]2O)c(C)c1 [Example 27] |  | 0.42 | > 800 | 
Cc1cc(C(=O)c2ccc(Cl)cc2)ccc1O[C@@H]1OC[C@@H](O)[C@H](O)[C@H]1O [Example 28] | ++ (from 50 to 79%) |  |  | DL-0 (maximum non-lethal dose) ([1]; in vivo, ip): > 800 mg/kg IP
O=C(c1ccc(O[C@@H]2OC[C@@H](O)[C@H](O)[C@H]2O)cc1)c1ccc(Cl)cc1Cl [Example 31] |  | 1.04 | > 800 | 
Cc1cc(C)c(C(=O)c2ccc(O[C@@H]3OC[C@@H](O)[C@H](O)[C@H]3O)cc2)c(C)c1 [Example 32] |  | 0.54 | > 800 | 
COc1cc(C(=O)c2ccc(O[C@@H]3OC[C@@H](O)[C@H](O)[C@H]3O)cc2)cc(OC)c1OC [Example 33] |  | 0.46 | > 800 | 
CC(=O)N[C@H]1[C@H](Oc2c(C)cc(C(=O)c3c(C)cccc3C)cc2C)O[C@H](CO)[C@@H](O)[C@@H]1O [Example 37] |  | 1.02 |  | LD50 ([1]; in vivo, ip, I.P.): 600 mg/kg
CC(=O)O[C@@H]1[C@@H](OC(C)=O)[C@H](Oc2ccc(C(=O)c3ccc([N+](=O)[O-])cc3)cc2)OC[C@H]1OC(C)=O [Example 41, [4-(4-nitrobenzoyl)-phenyl]-2,3,4-tri-(O-acetyl)-β-D-xylopyranoside] | +++ (higher than or equal to 80%) | 0.40 |  | DL-0 (maximum non-lethal dose) ([1]; in vivo, ip): > 800 mg/kg IP
CC(=O)O[C@@H]1[C@@H](OC(C)=O)[C@H](Oc2ccc(C(=O)c3ccc(N=C=S)cc3)cc2)OC[C@H]1OC(C)=O [Example 42] |  |  | > 800 | 
O=C(c1ccc(Cl)cc1)c1cccc(O[C@@H]2OC[C@@H](O)[C@H](O)[C@H]2O)c1 [Example 48] |  | 0.75 |  | LD50 ([1]; in vivo, ip, I.P.): 220 mg/kg
Cc1ccc(C(=O)c2cccc(O[C@@H]3OC[C@@H](O)[C@H](O)[C@H]3O)c2)cc1 [Example 49] |  | 1.21 | > 800 | 
Cc1ccccc1C(=O)c1cccc(O[C@@H]2OC[C@@H](O)[C@H](O)[C@H]2O)c1 [Example 52] |  |  | > 800 | 

Compound | Survival (survival percentage to hypoxic aggression) [3] | Ulcer index ([2]; 100 mg/kg I.P.) | DL-0 (maximum non-lethal dose) ([1]; I.P.) [mg/kg IP] | also measured
O=C(c1ccc(C(F)(F)F)cc1)c1cccc(O[C@@H]2OC[C@@H](O)[C@H](O)[C@H]2O)c1 [Example 53, [3-(4-trifluoromethylbenzoyl)-phenyl]-β-D-xylopyranoside] |  | 0.64 |  | LD50 ([1]; in vivo, ip, I.P.): 550 mg/kg
COC(=S)Nc1ccc(C(=O)c2ccc(O[C@@H]3OC[C@@H](O)[C@H](O)[C@H]3O)cc2)cc1 [Example 65] |  |  | > 800 | 
CC(=O)N[C@H]1[C@H](Oc2c(C)cc(C(=O)c3ccccc3C)cc2C)O[C@H](COS(=O)(=O)O)[C@@H](OS(=O)(=O)O)[C@@H]1OS(=O)(=O)O [Example 68] |  |  | > 800 | 
O=C(c1ccc(O[C@@H]2OC[C@@H](OS(=O)(=O)O)[C@H](OS(=O)(=O)O)[C@H]2OS(=O)(=O)O)cc1)c1cccc([N+](=O)[O-])c1 [Example 72] |  | 0.47 |  | LD50 ([1]; in vivo, ip, I.P.): 650 mg/kg
CC(=O)O[C@@H]1[C@@H](OC(C)=O)[C@H](Oc2ccc(C(=O)c3c(C)cc(C)cc3C)cc2)OC[C@H]1OC(C)=O [Example 73] |  | 0.52 | > 800 | 
CC(=O)O[C@@H]1[C@@H](OC(C)=O)[C@H](Oc2ccc(C(=O)c3ccc(Cl)cc3Cl)cc2)OC[C@H]1OC(C)=O [Example 74] |  | 0.91 | > 800 | 
CC(=O)O[C@@H]1[C@@H](OC(C)=O)[C@H](Oc2ccc(C(=O)c3ccccc3[N+](=O)[O-])cc2)OC[C@H]1OC(C)=O [Example 78] |  |  | > 800 | 
CC(=O)O[C@@H]1[C@@H](OC(C)=O)[C@H](Oc2ccc(C(=O)c3cccc([N+](=O)[O-])c3)cc2)OC[C@H]1OC(C)=O [Example 80] |  | 1.00 | > 800 | 
CC(=O)O[C@@H]1[C@@H](OC(C)=O)[C@H](Oc2cccc(C(=O)c3ccc(Cl)cc3)c2)OC[C@H]1OC(C)=O [Example 82] |  |  | > 800 | 
CC(=O)O[C@@H]1[C@@H](OC(C)=O)[C@H](Oc2cccc(C(=O)c3ccccc3)c2)OC[C@H]1OC(C)=O [Example 83] | ++ (from 50 to 79%) |  |  | DL-0 (maximum non-lethal dose) ([1]; in vivo, ip): > 800 mg/kg IP
COc1cc(C(=O)c2ccc(O[C@@H]3OC[C@@H](OC(C)=O)[C@H](OC(C)=O)[C@H]3OC(C)=O)cc2)cc(OC)c1O [Example 84] |  |  | > 800 | 
Cc1ccc(C(O)c2ccc(O[C@@H]3OC[C@@H](O)[C@H](O)[C@H]3O)cc2)cc1 (stereo partly shown) [Example 90] |  | 0.57 | > 800 | 
OC(c1ccc(O[C@@H]2OC[C@@H](O)[C@H](O)[C@H]2O)cc1)c1cccc(C(F)(F)F)c1 (stereo partly shown) [Example 93] |  |  | > 800 | 
OC(c1ccc(Br)cc1)c1ccc(O[C@@H]2OC[C@@H](O)[C@H](O)[C@H]2O)cc1 (stereo partly shown) [Example 95] |  | 0.52 | > 800 | 
CC(=O)N[C@H]1[C@H](Oc2ccc(C(=O)c3ccccc3Cl)cc2)O[C@H](CO)[C@@H](O)[C@@H]1O [Example 120] | +++ (higher than or equal to 80%) |  |  | DL-0 (maximum non-lethal dose) ([1]; in vivo, ip): > 800 mg/kg IP
O=C(c1ccc(Cl)cc1)c1ccc(O[C@@H]2O[C@H](CO)[C@@H](O)[C@H](O)[C@H]2O)cc1 [Example 124] | + (from 30 to 49%) |  |  | DL-0 (maximum non-lethal dose) ([1]; in vivo, ip): > 800 mg/kg IP
O=C(c1ccccc1)c1ccc(O[C@@H]2O[C@H](CO)[C@@H](O)[C@H](O)[C@H]2O)cc1 [Example 126] | + (from 30 to 49%) |  |  | DL-0 (maximum non-lethal dose) ([1]; in vivo, ip): > 800 mg/kg IP
Cc1ccc(C(=O)c2ccc(O[C@@H]3O[C@H](CO)[C@@H](O)[C@H](O)[C@H]3O)cc2)cc1 [Example 127] | ++ (from 50 to 79%) |  |  | LD50 ([1]; in vivo, ip, I.P.): 700 mg/kg
CC(=O)N[C@H]1[C@H](Oc2ccc(C(O)c3ccc(C)cc3)cc2)O[C@H](CO)[C@@H](O)[C@@H]1O (stereo partly shown) [Example 128] | ++ (from 50 to 79%) |  |  | DL-0 (maximum non-lethal dose) ([1]; in vivo, ip): > 800 mg/kg IP
O=[N+]([O-])c1ccc(C(O)c2ccc(O[C@@H]3O[C@H](CO)[C@@H](O)[C@H](O)[C@H]3O)cc2)cc1 (stereo partly shown) [Example 129] |  |  | > 800 | 
